Assay results published in patent US10287617B2, “Methods for in vitro—in vivo efficacy determination” (COLORADO STATE UNIVERSITY RESEARCH FOUNDATION, priority 2014, dated 2019).
“And” between values parts separate entries of the source, which are not always exact repeats. Equal values may be shown once.

Experiments:
M. tuberculosis Erdman = format: in vivo; conditions: SB-P17G-A20 50 mg/kg IP bid, INH 20 mg/kg IP qd, days 5 to 14 post-infection
M. tuberculosis H37Rv [1] = format: cell-based, Mycobacterium tuberculosis; conditions: 2×10^9 cells plated on 1.6 μg/mL (10 times MIC)
M. tuberculosis H37Rv [2] = format: cell-based; conditions: SB-P17G-A20 with rifampicin

Row | SMILES | reduction in bacterial load in the lungs (M. tuberculosis Erdman) | reduction in bacterial load in the spleen (M. tuberculosis Erdman) | spontaneous resistant mutants (M. tuberculosis H37Rv [1]) | enhancement of activity in the presence of the other drug (M. tuberculosis H37Rv [2]) | ΣFIC (M. tuberculosis H37Rv [2])
1 | NNC(=O)c1ccncc1 [Isoniazid, reference compound] | below the level of detection | below the level of detection |  |  | 
2 | CN(C)c1cc2nc(C3CCCCC3)[nH]c2cc1NC(=O)c1ccc(OC(F)(F)F)cc1 [SB-P17G-A20] | 1.73±0.24 log10 CFU and 1.73 log10 CFU | 2.68 log10 CFU and 2.68±0.48 log10 CFU | No mutants where observed | 2-4 fold | 0.75
3 | CCCCOC(=O)Nc1cc2nc(C3CCCCC3)[nH]c2cc1N(C)C [SB-P17G-C2] | no significant reduction | no significant reduction |  |  | 
